According to patent US20040014813A1, “Anthelminthic agents for the prevention of parasitic infections in humans and animals II” (priority 2000, published 2004):

Experiments:
[1] = system: Schistosoma mansoni cercariae; assay: Activity against Schistosoma mansoni cercariae (survival/mobility under stereomagnifier); assay type: cell-based; parameters: key: no effect during the entire test period of 120 minutes; 1: weak effect (the cercariae have a strongly reduced mobility); 2: good effect (the cercariae are only slightly mobile and bent); 3: full effect (the cercariae are completely immobile); conditions: 500 >1/l final concentration of the active compounds; 5 μl active compound in 25 μl PEG300 + 9 ml aquarium water + 1 ml cercariae suspension; test period 120 minutes
Experimental: Activity Against Schistosoma Mansoni Cercariae
[500 >1/l Final Concentration of the Active Compounds]
Snails (Biomphalaria glabrata) were infected by incubating each of them with 8 miracidia in 10 ml of water overnight. About 6 to 9 weeks after the infection, cercariae were obtained by irradiating the snails, which had been kept in darkness, with light, followed by collection of the swarming cercariae within 2 hours.
Such an amount of cercariae-containing water (1 or 2 ml, see below) was added to the test batches that each batch contained about 100 to 150 cercariae.
5 μl of active compound were mixed thoroughly with 25 μl of PEG300. 9 ml of aquarium water was then added, and the batch was shaken vigorously. After (delayed) addition of 1 ml of cercariae suspension, survival of the cercariae was in each case observed immediately using a stereomagnifier.

[2] = system: cercariae of Schistosoma mansoni; conditions: literature (Fripp and Armstrong 1973; Salafsky et al. 1998); cited from earlier work
[3] = EU Directive on Dangerous Substances; Registry of Toxic Effects of Chemical Substances; cited from earlier work
[4] = system: cercariae of Schistosoma mansoni; conditions: literature (Bruce et al. 1992), monkeys, topical; cited from earlier work

Work on `CC(C)(C)C(=O)N1CCCCC1CCO` (stereo not drawn) yielded an Assessment [1] of 3.

For `CCCCC(=O)N1CCCCC1CCO` (stereo not drawn), the Assessment [1] was 2.

In the case of `CCCCC(=O)N1CCCCC1CCOC` (stereo not drawn), the Assessment [1] is reported as 2.

With `CCN(CC)C(=O)CC1CCCCC1` the Assessment [1] was 3.

For `CCN(CC)C(=O)c1cccc(C)c1` [N,N-Diethyl-m-toluamide (DEET), N,N-Diethyl-m-toluamide], the “effect on cercariae of Schistosoma mansoni” value [2] is given as “acts against cercariae”.

In the case of `O=C(Nc1ccc([N+](=O)[O-])cc1Cl)c1cc(Cl)ccc1O` [Niclosamide], the toxicity [3] is given as “may possibly cause inheritable genetic damage” and the “action against the penetration of cercariae” value [4] is given as “acts against the penetration of cercariae”.

In the case of `Oc1c(Cl)cc(Cl)c(Cl)c1Cc1c(O)c(Cl)cc(Cl)c1Cl` [hexachlorophene], the toxicity [3] is given as “toxic on contact with the skin and when swallowed” and the “effect on cercariae of Schistosoma mansoni” value [2] is given as “lethal effect”.
